In patent US11401278B2, “Macrocyclic indole derivatives” (The Broad Institute, Inc., priority 2017, dated 2022):
Read-outs that look alike come from different tables or passages of the source.

Legend:
AMO-1 = experiment: Antiproliferation assay (Assay 7), AMO-1; type: cell-based; conditions: CellTiter-Glo, several values per example
How it was run: (§1)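 Anti-proliferative effect is determined from CellTiter-Glo signal after a 72-hour incubation at 37° C, with a time-zero reference plate measured in parallel.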

MV-4-11 = experiment: Antiproliferation assay (Assay 7), MV-4-11; type: cell-based; conditions: CellTiter-Glo, several values per example
How it was run: as §1

MCL-1 = MCL-1 (Homo sapiens (Human), UniProt Q07820, K194A/K197A/R201A); experiment: Protein-protein interaction assay MCL-1/Noxa BH3 peptide (MCL-1 assay, TR-FRET); type: binding; conditions: MBP-MCL-1 / Noxa BH3 peptide, median
MCL-1, sequence (Q07820 whole entry K194A/K197A/R201A, looked up, the tested form may be a part): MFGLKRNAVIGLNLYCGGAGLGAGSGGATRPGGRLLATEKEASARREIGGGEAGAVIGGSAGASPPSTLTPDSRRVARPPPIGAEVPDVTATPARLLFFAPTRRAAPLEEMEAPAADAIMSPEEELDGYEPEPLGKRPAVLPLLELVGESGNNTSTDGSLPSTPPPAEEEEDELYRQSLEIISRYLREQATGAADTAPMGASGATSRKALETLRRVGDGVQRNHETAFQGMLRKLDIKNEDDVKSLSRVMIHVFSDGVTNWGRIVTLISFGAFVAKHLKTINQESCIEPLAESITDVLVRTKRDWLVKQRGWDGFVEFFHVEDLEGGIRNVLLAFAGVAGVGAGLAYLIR
How it was run: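 MBP-fused MCL-1 (aa 173-329, 1 nM) was pre-incubated with compound for 10 min at 22° C, then biotinylated Noxa BH3 peptide (1 nM) was added with anti-MBP-Eu cryptate and streptavidin-XL665. Incubation was 1 h at 22° C, then overnight at 4° C, in Tris pH 7 buffer. The 665/620 nm ratio over 11 concentrations (0.1 nM-20 μM) gave IC50 by 4-parameter fit.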

SUDHL5 [1] = experiment: Induction of cytotoxicity (Assay 6), SUDHL5; conditions: read-out: Cytotox SUDHL5 [M] (median) IC50, CellTiter-Glo, 5 hours, SUDHL5
SUDHL5 [2] = experiment: Antiproliferation assay (Assay 7), SUDHL5; type: cell-based; conditions: CellTiter-Glo, median, read-out: Antiproli SUDHL5 [M] (median) IC50
How it was run: as §1

SUDHL10 = experiment: Induction of cytotoxicity (Assay 6), SUDHL10; conditions: read-out: Cytotox SUDHL10 [M] (median) IC50, CellTiter-Glo, 5 hours, SUDHL10
SUDHL5 [3] = experiment: Induction of caspase-3/7 activity (Assay 4), SUDHL5; type: cell-based; conditions: caspase-3/7 induction, median
How it was run: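 Caspase-3/7 activity measured by Caspase-Glo 3/7 luminescence in DLBCL cells after 3 h compound treatment at 37 °C. Medium-only background subtracted. EC50 fitted with C0 fixed at 1 and top set to the reference compound's plateau/max induction.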

[4] = Homo sapiens, AMO1, 72 h, read-out: Antiproli AMO-1 [M] IC50
[5] = Homo sapiens, MV4-11, 72 h, read-out: Antiproli MV-4-11 [M] IC50
[6] = 72 hours, read-out: Antiproli AMO-1 [M] IC50
[7] = 72 hours, read-out: Antiproli MV-4-11 [M] IC50

Row | Compound | IC50 (AMO-1; [4]) [M] | IC50 (MV-4-11; [5]) [M] | IC50 (MCL-1) [nM] | IC50 (SUDHL5 [1]; Homo sapiens, SU-DHL-5, 5 h) [M] | IC50 (SUDHL5 [2]; Homo sapiens, SU-DHL-5, 72 h) [M] | IC50 (SUDHL10; Homo sapiens, SU-DHL10, 5 h) [M] | EC50 (SUDHL5 [3]; Homo sapiens, SU-DHL-5, 3 h) [nM] | IC50 (AMO-1; [6]) [M] | IC50 (MV-4-11; [7]) [M] | IC50 (AMO-1; 72 hours, listed as 09, read-out: Antiproli AMO-1 [M] IC50) [M] | IC50 (MV-4-11; 72 hours, listed as 09, read-out: Antiproli MV-4-11 [M] IC50) [M] | IC50 (SUDHL5 [1]) [M] | IC50 (SUDHL5 [2]; 72 hours) [M] | IC50 (SUDHL10) [M] | EC50 (SUDHL5 [3]; 3 hours) [nM]
1 | Cc1cc(OCCCc2c(C(=O)O)n3c4c(c(F)ccc24)-c2c(nn(C)c2C)CN(C)S(=O)(=O)CCC3)cc(C)c1Cl (racemic) [Example 28, (rac)-1-(3-(4-Chloro-3,5-dimethylphenoxy)propyl)-13-fluoro-8,11,12-trimethyl-5,6,9,11-tetrahydro-4H,8H-pyrazolo[3′,4′:4,5][1]thia[2,8]diazacycloundecino[6,7,8-hi]indole-2-carboxylic acid 7,7-dioxide] | 1.2e-05 | 7.54e-06 | 4 | 3.1e-06 | 1.2e-06 | 8e-06 | 2000 |  |  |  |  |  |  |  | 
2 | Cc1c2c(nn1C)CN(C)S(=O)(=O)CCCn1c(C(=O)O)c(CCCOc3cccc4c3CCCC4)c3ccc(F)c-2c31 (racemic) [Example 29, (rac)-13-Fluoro-8,11,12-trimethyl-1-(3-((5,6,7,8-tetrahydronaphthalen-1-yl)oxy)propyl)-5,6,9,11-tetrahydro-4H,8H-pyrazolo[3′,4′:4,5][1]thia[2,8]diazacycloundecino[6,7,8-hi]indole-2-carboxylic acid 7,7-dioxide] | 7.1e-06 | 5.86e-06 | 3.1 | 1.8e-06 | 5e-07 | 3.8e-06 | 1500 |  |  |  |  |  |  |  | 
3 | CCc1c2c(nn1C)CN(C)S(=O)(=O)CCCn1c(C(=O)O)c(CCCOc3cccc4ccccc34)c3ccc(F)c-2c31 (racemic) [Example 31, (rac)-12-Ethyl-13-fluoro-8,11-dimethyl-1-(3-(naphthalen-1-yloxy)propyl)-5,6,9,11-tetrahydro-4H,8H-pyrazolo[3′,4′:4,5][1]thia[2,8]diazacycloundecino[6,7,8-hi]indole-2-carboxylic acid 7,7-dioxide] | 4.2e-06 | 4.7e-06 | 3.6 | 9.3e-07 | 5.3e-07 | 1.9e-06 | 800 | 3.9e-06 | 5.51e-06 |  |  |  |  |  | 
4 | CCc1c2c(nn1C)CN(C)S(=O)(=O)CCCn1c(C(=O)O)c(CCCOc3cccc4c3CCC4)c3ccc(F)c-2c31 (racemic) [Example 32, (rac)-1-(3-((2,3-Dihydro-1H-inden-4-yl)oxy)propyl)-12-ethyl-13-fluoro-8,11-dimethyl-5,6,9,11-tetrahydro-4H,8H-pyrazolo[3′,4′:4,5][1]thia[2,8]diazacycloundecino[6,7,8-hi]indole-2-carboxylic acid 7,7-dioxide] | 2.4e-06 | 2.2e-06 | 1.5 | 7.4e-07 | 3.9e-07 | 1.2e-06 | 580 | 3.9e-06 | 1.14e-06 |  |  |  |  |  | 
5 | CCc1c2c(nn1C)CN(C)S(=O)(=O)CCCn1c(C(=O)O)c(CCCOc3ccc(F)c4ccccc34)c3ccc(F)c-2c31 (racemic) [Example 35, (rac)-12-Ethyl-13-fluoro-1-(34(4-fluoronaphthalen-1-yl)oxy)propyl)-8,11-dimethyl-5,6,9,11-tetrahydro-4H,8H-pyrazolo[3′,4′:4,5][1]thia[2,8]diazacycloundecino[6,7,8-hi]indole-2-carboxylic acid 7,7-dioxide] | 5.2e-06 | 4.34e-06 | 3.5 | 1.6e-06 | 7.6e-07 | 2.7e-06 | 1200 | 6.6e-06 | 8.18e-06 |  |  |  |  |  | 
6 | CCc1c2c(nn1C)CN(C)S(=O)(=O)CCCn1c(C(=O)O)c(CCCOc3cccc4cc(F)ccc34)c3ccc(F)c-2c31 (single isomer, unassigned; enantiomer 2) [Example 9, (−)-3-Ethyl-4-fluoro-7-{3-[(6-fluoronaphthalen-1-yl)oxy]propyl}-2,14-dimethyl-13,13-dioxo-10,11,12,13,14,15-hexahydro-2H-13λ^6-pyrazolo[3′,4′:4,5][1,2,8]thiadiazacycloundecino-[6,7,8-hi]indole-8-carboxylic acid (Enantiomer 2)] |  |  | 34 |  |  |  |  |  |  | > 3.3e-05 | 1.98e-05 | 1.7e-05 | 1.4e-05 | > 3.3e-05 | 21000
7 | CCc1c2c(nn1C)CN(C)S(=O)(=O)CCCn1c(C(=O)O)c(CCCOc3cccc4ccccc34)c3ccc(Cl)c-2c31 [Example 20, (rac)-13-Chloro-12-ethyl-8,11-dimethyl-1-(3-(naphthalen-1-yloxy)propyl)-5,6,9,11-tetrahydro-4H,8H-pyrazolo[3′,4′:4,5][1]thia[2,8]diazacycloundecino[6,7,8-hi]indole-2-carboxylic acid 7,7-dioxide] | 2.8e-06 | 1.31e-06 | 2.7 | 9.1e-07 | 5.2e-07 | 1.7e-06 | 860 |  |  |  |  |  |  |  | 
8 | CCc1c2c(nn1C)CN(C)S(=O)(=O)CCCn1c(C(=O)O)c(CCCOc3cccc4c3CCC4)c3ccc(Cl)c-2c31 [Example 21, (rac)-13-Chloro-1-(3-((2,3-dihydro-1H-inden-4-yl)oxy)propyl)-12-ethyl-8,11-dimethyl-5,6,9,11-tetrahydro-4H,8H-pyrazolo[3′,4′:4,5][1]thia[2,8]diazacycloundecino[6,7,8-hi]indole-2-carboxylic acid 7,7-dioxide] | 2.6e-06 | 2.1e-06 | 1.7 | 1e-06 | 5.3e-07 | 1.8e-06 | 650 |  |  |  |  |  |  |  | 
9 | CCc1c2c(nn1C)CN(C)S(=O)(=O)CCCn1c(C(=O)O)c(CCCOc3cc(C)c(Cl)c(C)c3)c3ccc(Cl)c-2c31 [Example 22, (rac)-13-Chloro-1-(3-(4-chloro-3,5-dimethylphenoxy)propyl)-12-ethyl-8,11-dimethyl-4,5,6,8,9,11-hexahydropyrazolo[3′,4′:4,5][1,2,8]thiadiazacycloundecino[6,7,8-hi]indole-2-carboxylic acid 7,7-dioxide] | 2.6e-06 | 2.41e-06 | 3.1 | 2.1e-06 | 1.9e-06 | 3.6e-06 | 1800 |  |  |  |  |  |  |  | 
10 | CCc1c2c(nn1C)CN(C)S(=O)(=O)CCCn1c(C(=O)O)c(CCCOc3cccc4c3CCCC4)c3ccc(Cl)c-2c31 [Example 23, (rac)-13-Chloro-12-ethyl-8,11-dimethyl-1-(3-((5,6,7,8-tetrahydronaphthalen-1-yl)oxy)propyl)-4,5,6,8,9,11-hexahydropyrazolo[3′,4′:4,5][1,2,8]thiadiazacycloundecino[6,7,8-hi]indole-2-carboxylic acid 7,7-dioxide] | 3.8e-06 | 1.96e-06 | 3.3 | 1.7e-06 | 6.9e-07 | 2.5e-06 | 1300 |  |  |  |  |  |  |  | 
11 | CCc1c2c(nn1C)CN(C)S(=O)(=O)CCCn1c(C(=O)O)c(CCCOc3ccc(F)c4ccccc34)c3ccc(Cl)c-2c31 [Example 24, (rac)-13-Chloro-12-ethyl-1-(34(4-fluoronaphthalen-1-yl)oxy)propyl)-8,11-dimethyl-4,5,6,8,9,11-hexahydropyrazolo[3′,4′:4,5][1,2,8]thiadiazacycloundecino[6,7,8-hi]indole-2-carboxylic acid 7,7-dioxide] | 4.3e-06 | 2.5e-06 | 3.4 | 1.3e-06 | 1.2e-06 | 2.4e-06 | 1100 |  |  |  |  |  |  |  | 
12 | Cc1c2c(nn1C)CN(C)S(=O)(=O)CCCn1c(C(=O)O)c(CCCOc3ccc(F)c4ccccc34)c3ccc(F)c-2c31 [Example 30, (rac)-13-Fluoro-1-(34(4-fluoronaphthalen-1-yl)oxy)propyl)-8,11,12-trimethyl-5,6,9,11-tetrahydro-4H,8H-pyrazolo[3′,4′:4,5][1]thia[2,8]diazacycloundecino[6,7,8-hi]indole-2-carboxylic acid 7,7-dioxide] | 7e-06 | 3.5e-06 | 5.1 | 1.7e-06 | 1.4e-06 | 4.4e-06 | 1700 |  |  |  |  |  |  |  | 
